Read-outs that look alike come from different tables or passages of the source.
Key:
Format in all cases: cell-based
[1] = tested on: Escherichia coli (E. coli—ATCC #10536); assay: Automated assessment of efficacy in model surfactant medium (2.85% sodium cocoyl glycinate and 1.85% sodium lauroamphoacetate), 15 seconds exposure, delta OD450/OD590; details: for No. of replicates showing growth (out of 4) / Δ OD 450 nm = OD450 (time = 16 hours) − OD450 (time zero), Mean / Δ OD 590 nm OD590 (time = 16 hours) − OD590 (time zero), Mean: model surfactant solution, 15 s exposure; for MBC: Escherichia coli, ATCC10536, 15 s, in 2.85% sodium cocoyl glycinate + 1.85% sodium lauroamphoacetate solution at pH 10, E. coli, read-out: MBC (minimum biocidal concentration)
Method: Micobiocidal Activity of Actives as Per the Invention in a Model Surfactant Medium Test Methodology for Automated Assessment of Efficacy in Surfactant Base
Solutions were prepared such that the concentrations of the surfactant components and test actives were 1.1×the final desired concentration in order to allow for dilution with the bacterial inoculum in the test. The solutions were manually adjusted to […] by dropwise addition of sodium hydroxide solution, as measured with a pH meter at ambient temperature.
Tests were conducted using standard microtiter plate assays using an automated liquid handling system, 270 μl of the surfactant test solution was pipetted into each well of the microtitre plate and 30 μl of the bacterial suspension was then added. After exactly 15 seconds of bacterial exposure, a 30 μl volume of bacterial cells was withdrawn and transferred to 270 μl of D/E quench solution. After 5 minutes in the D/E quench, the optical density (OD) was measured for each plate in turn at two specific wavelengths (450 nm and 590 nm). These provide a dual check of antimicrobial activity, as the OD450 reading is specific for the yellow colour of D/E quench when bacterial growth is observed, whereas OD590 is specific for the initial purple colour of the D/E quench which is retained if no bacterial growth is observed. After the time zero OD measurements, plates were then incubated at 37° C. overnight (16 hours) before repeating the OD measurements. Delta OD values were calculated by subtracting […]. Bacterial growth is observed as art increase in OD450 and a decrease in ΔOD590. To identify antibacterially efficacious systems (those preventing appreciable bacterial growth after incubation), the following threshold changes in OD readings have been adopted: if (1). OD450 increases by less than 0.2 absorbance unit on incubation and (2). OD590 decreases by less than 0.35 unit on incubation. Conversely, where OD450 increases by more than 0.2 AU and OD590 decreases by more than 0.35 unit after incubation, corresponding to a colour shift from purple to yellow, the test system allows bacterial growth and is not deemed efficacious, four replicate measurements in the same plate have been made for each test system. The number of replicate wells showing either bacterial growth or no growth is also readily assessed by eye by following the colour change.
Dose responses for individual components and binary mixtures of actives at a fixed concentration ratio were generated by sequential dilution of liquors with further surfactant solution to obtain a series of endpoints.
In some selected cases, the combinations were also tested at the weight ratio 1:1.

[2] = tested on: Escherichia coli (10536 strain); assay: 15 seconds contact kill assay of actives in water, mean bacterial survival NMBS; details: for NMBS: alone, 15 seconds contact
[3] = tested on: Escherichia coli (E. coli—ATCC #10536); assay: Synergy tests: high resolution MBC microtiter plate assay, 15 seconds contact, phosphate buffer containing […] dipropylene glycol; details: for MBC of the component acting alone (QA or QB): complete kill in 15 seconds
Description: The concentrations and ratios may also vary under different test conditions or with different test methods.
One measure of synergy is the industrially accepted method described by Kull, F. C.; Eisman, P. C.; Sylwestrowicz, H. D. and Mayer, R. L., in Applied Microbiology 9:538-541 (1961), using the ratio determined by the formula: Qa/QA+Qb/QB=Synergy Index (“SI”) wherein: • QA=concentration of compound A (first component) in percent, acting alone, which produced an end point (MBC of Compound A). • Qa=concentration of compound A in percent, in the mixture, which produced an end point. • QB=concentration of compound B (second component) in percent, acting alone, which produced an end point (MBC of Compound B). • Qb=concentration of compound B in percent, in the mixture, which produced an end point.
When the sum of Qa/QA and Qb/QB is greater than one, antagonism is indicated. […] The lower the SI, the greater is the synergy shown by that particular mixture. The minimum biocidal concentration (MBC) of a microbicide is the lowest concentration tested under a specific set of conditions that provides complete kill of the tested microorganisms.
Synergy tests were conducted using standard microtiter plate assays with phosphate buffer containing 3.5% dipropylene glycol (DPG). In this method, a wide range of combinations of chemicals was tested by conducting high resolution MBC assays of Component (A) in the presence of various concentrations of Component (B). High resolution MBCs were determined by adding varying amounts of microbicide to one column of a microtiter plate and doing subsequent […] dilutions using an automated liquid handling system to obtain a series of closely spaced endpoints. The MBC plate was inoculated one column at a time with the test microorganism. An aliquot of the inoculated well was transferred at 15 seconds to a plate containing a neutralizing agent (D/E Neutralizing Broth), mixed and held for 5 minutes before being transferred to a growth plate containing trypticase soy broth (TSB). The TSB plate was incubated at 37° C. and read for the presence/absence of growth at 24 hours. The lowest level tested that provided complete kill (as evidenced by no growth in the microtitre plate) of the test organisms in 15 seconds is the minimum biocidal concentration (MBC).
The synergy of the combinations of the present invention was determined against a bacterium, Escherichia coli (E. coli—ATCC #10536), at a concentration of approximately 1×10^8 bacteria, per mL. This microorganism is representative of natural contaminants in many consumer and industrial applications.

[4] = single active alone at 0.1% w/v
[5] = single active alone at 0.2% w/v
[6] = E. coli 10536, at Qa and Qb, <1 synergy, 1 additivity, >1 antagonism
[7] = single active alone at 0.3% w/v

SMILES	No. of replicates showing growth (out of 4) [1, 4]	Δ OD 450 nm = OD450 (time = 16 hours) − OD450 (time zero), Mean [1, 4]	Δ OD 590 nm OD590 (time = 16 hours) − OD590 (time zero), Mean [1, 4]	No. of replicates showing growth (out of 4) [1, 5]	Δ OD 450 nm = OD450 (time = 16 hours) − OD450 (time zero), Mean [1, 5]	Δ OD 590 nm OD590 (time = 16 hours) − OD590 (time zero), Mean [1, 5]	No. of replicates showing growth (out of 4) ([1]; single active alone at […] w/v)	Δ OD 450 nm = OD450 (time = 16 hours) − OD450 (time zero), Mean ([1]; single active alone at […] w/v)	Δ OD 590 nm OD590 (time = 16 hours) − OD590 (time zero), Mean ([1]; single active alone at […] w/v)	SI (Synergy Index = Qa/QA + Qb/QB) [3, 6]	also measured
CCCCc1ccc(O)cc1 [4-butylphenol]	4	−0.61	0.53	4	−0.54	0.58	4	−0.58	0.54	–	–
Cc1cc(O)ccc1C(C)C [4-isopropyl-3-methylphenol]	–	–	–	–	–	–	4	−1.53	0.23	–	–
CCCCc1ccc(O)cc1 [4-n-butyl phenol]	–	–	–	–	–	–	–	–	–	–	MBC of phenolic compound ([2]; phenolic compound alone, complete bacterial kill against E. coli): 0.25 % (w/v)
CCCCc1ccc(O)cc1 [4-n-butylphenol]	–	–	–	–	–	–	–	–	–	–	MBC of the component acting alone (QA or QB) ([3]; E. coli 10536): 0.2 weight %; MBC [1]: > 2000 µg/mL; NMBS ([2]; 0.0125% w/v, E. coli): 7.85 log CFU/ml; MBC (minimum biocidal concentration) ([2]; E. coli, in water, component alone): 0.25 % w/v; NMBS ([2]; […] w/v, E. coli): 0 log CFU/ml
CCCc1ccc(O)cc1 [4-propylphenol]	4	−1.59	0.34	4	–	–	4	–	–	1.00	–
CCC(C)c1ccc(O)cc1 (stereo not drawn) [4-sec-butylphenol]	–	–	–	–	–	–	–	–	–	1.00	–
Cc1ccc(C(C)C)cc1O [5-isopropyl-2-methylphenol]	4	−0.52	0.62	4	−0.52	0.62	4	–	–	–	SI (Synergy Index = Qa/QA + Qb/QB) [3]: 1.00
C/C=C/c1ccccc1O [(E)-2-(prop-1-enyl)phenol]	4	−0.60	0.59	4	−0.53	0.63	4	−0.57	0.58	1.00	MBC of the component acting alone (QA or QB) ([3]; E. coli 10536): 0.8 weight %
C=C(C)[C@@H]1CC=C(CO)CC1 [(S)-(−) perillyl alcohol]	–	–	–	4	−1.44	0.36	1	−0.18	0.19	–	No. of replicates showing growth (out of 4) [1, 7]: 4; Δ OD 450 nm = OD450 (time = 16 hours) − OD450 (time zero), Mean [1, 7]: −1.15; Δ OD 590 nm OD590 (time = 16 hours) − OD590 (time zero), Mean [1, 7]: 0.56
CC1CCC(CO)C(C)C1 (stereo not drawn) [dihydrofloralol, 2,4-Dimethylcyclohexylmethanol]	–	–	–	4	−1.39	0.41	–	–	–	–	MBC [1]: 4000 µg/mL; NMBS ([2]; 0.3% w/v, E. coli): 6.18 log CFU/ml; NMBS ([2]; 0.4% w/v, E. coli): 3.97 log CFU/ml; NMBS ([2]; 0.5% w/v, E. coli): 0.00 log CFU/ml
